Reference: EP0025528A1, “1-(2-Acetylphenylthio)-3-alkylamino-2-propanols and their acid-addition salts, process for their preparation and medicines containing them” (A. Nattermann & Cie. GmbH, priority 1979, dated 1981)
Like-named read-outs stand apart in the source and are kept apart here.

Columns and labels:
[1] = tested on: Reserpinisierte Ratte; assay: Intrinsic sympathomimetic activity (ISA) in reserpinised anaesthetised rat; type: in vivo, Wistar-Ratten; details: intravenous; maximal heart-rate increase (mean of 6 animals) relative to 1,0 µg Isoprenalin/kg i.v.; reserpine 5 mg/kg i.p. 24 h before
Method: Die Tiere bekamen 24 Stunden vor Versuchsbeginn 5 mg Reserpin/kg intraperitoneal. Die Herzfrequenz wurde aus der Blutdruckamplitude (Polyäthylenkatheter mit aufgesetztem Stathamelement in der rechten Arteria femoralis) mit Hilfe eines Kardiotachometers abgenommen und auf einem Schreiber fortlaufend registriert. Die Applikation der Testlösungen erfolgte über einen Katheter in der linken Vena femoralis. Es wurden von jeder Testverbindung vier ansteigende Dosen getrennt jeweils an sechs verschiedenen Tieren geprüft.
Die maximale Steigerung der Herzfrequenz (Mittelwert aus 6 Tieren) durch die einzelnen Testverbindungen wurde als Maß für ihre agonistische Aktivität genommen und in Prozent der Frequenzsteigerung durch 1,0 µg Isoprenalin/kg Körpergewicht i.v. errechnet.

[2] = in vivo; details: for LD50 at 168 h: mouse
Excerpt: Die akute Toxizität wurde an NMRI-Mäusen durch intravenöse bzw. orale Gabe von steigenden Dosen der erfindungsgemäßen Verbindung ermittelt.

[3] = tested on: Narkotisierte Katze; assay: Anaesthetised cat: inhibition of isoprenaline-induced tachycardia (competitive ß-adrenergic antagonism in vivo); set-up: species or system Katzen; details: Felis catus, read-out: ED50 Hemmung der Isoprenalin-induzierten Herzfrequenzsteigerung
Excerpt: Zum Nachweis des kompetitiven ß-adrenergischen Antagonismus in vivo wurden mischrassige Katzen beiderlei Geschlechts und in Chloralose-Pentobarbitalnarkose verwendet. […] Die Registrierung erfolgte über ein Stathamelement aus einem Beckman Dynograph Typ R. Aus der Blutdruckamplitude wurde mit Hilfe eines Kardiotachometers die Herzfrequenz abgenommen und auf einem weiteren Kanal des Dynographen aufgezeichnet. Die Applikation der Testlösungen erfolgte über einen Katheter in die linke Vena femoralis. Es wurde die inhibierende Wirkung ansteigender Testsubstanz-Dosen auf die durch i.v.Gabe von 0,5 gg Isoprenalin/kg Körpergewicht induzierte Tachykardie bzw. Hypotonie (Blutdrucksenkung) geprüft. Als ED50-Werte wurden in der Tabelle die Dosen der Referenz- bzw. erfindungsgemäßen Verbindung eingetragen, die die Isoprenalineffekte jeweils auf die Hälfte reduzierten.

[4] = intravenous, cat under chloralose-pentobarbital anaesthesia, isoprenaline 0,5 gg/kg i.v., dose halving the isoprenaline effect

SMILES	ß-sympathomimetische Eigenaktivität (ISA) in % der sympathomimetischen Aktivität von Isoprenalin [1] [%]	selectivity ratio ([2]; iv)	LD50 at 168 h ([2]; iv) [mg/kg]	ED50 [3, 4] [mg/kg]	ED50 ([3]; iv) [mg/kg]	LD50 at 168 h ([2]; po) [mg/kg]
CC(=O)Nc1ccc(OCC(O)CNC(C)C)cc1 (centres unmarked) [Practolol]	54	1030	148	0.144	–	–
CC(C)NCC(O)COc1cccc2ccccc12 (centres unmarked) [Propranolol]	0	–	–	–	0.017	–
CC(=O)c1ccccc1SCC(O)CNC(C)(C)C (racemic) [Beispiel 1, 1-(2-Acetylphenylthio)-3-tert.-butyl-amino-2-propanol]	33	2520	111	0.044	–	667
